From patent US12162890B2 (Novartis AG, priority 2015, dated 2024)
Note: test concentration or dose not given here.

Each compound was assayed against HEK293 cells with stable expression of the GRIN1 gene and tetracycline-inducible expression of the GRIN2B gene (NMDA receptor, NR2B) (Homo sapiens, UniProt Q13224) (assay: Fluo-8 Ca2+ flux assay: reversal of Ro 25-6981-mediated suppression of the Ca2+ response to co-agonist (glutamate/glycine)). Conditions: reversal of the Ro 25-6981 suppression of the Ca2+ response to co-agonist (glutamate/glycine).
Chain of HEK293 cells with stable expression of the GRIN1 gene and tetracycline-inducible expression of the GRIN2B gene (NMDA receptor, NR2B) (Q13224 27-1484, other chains not shown): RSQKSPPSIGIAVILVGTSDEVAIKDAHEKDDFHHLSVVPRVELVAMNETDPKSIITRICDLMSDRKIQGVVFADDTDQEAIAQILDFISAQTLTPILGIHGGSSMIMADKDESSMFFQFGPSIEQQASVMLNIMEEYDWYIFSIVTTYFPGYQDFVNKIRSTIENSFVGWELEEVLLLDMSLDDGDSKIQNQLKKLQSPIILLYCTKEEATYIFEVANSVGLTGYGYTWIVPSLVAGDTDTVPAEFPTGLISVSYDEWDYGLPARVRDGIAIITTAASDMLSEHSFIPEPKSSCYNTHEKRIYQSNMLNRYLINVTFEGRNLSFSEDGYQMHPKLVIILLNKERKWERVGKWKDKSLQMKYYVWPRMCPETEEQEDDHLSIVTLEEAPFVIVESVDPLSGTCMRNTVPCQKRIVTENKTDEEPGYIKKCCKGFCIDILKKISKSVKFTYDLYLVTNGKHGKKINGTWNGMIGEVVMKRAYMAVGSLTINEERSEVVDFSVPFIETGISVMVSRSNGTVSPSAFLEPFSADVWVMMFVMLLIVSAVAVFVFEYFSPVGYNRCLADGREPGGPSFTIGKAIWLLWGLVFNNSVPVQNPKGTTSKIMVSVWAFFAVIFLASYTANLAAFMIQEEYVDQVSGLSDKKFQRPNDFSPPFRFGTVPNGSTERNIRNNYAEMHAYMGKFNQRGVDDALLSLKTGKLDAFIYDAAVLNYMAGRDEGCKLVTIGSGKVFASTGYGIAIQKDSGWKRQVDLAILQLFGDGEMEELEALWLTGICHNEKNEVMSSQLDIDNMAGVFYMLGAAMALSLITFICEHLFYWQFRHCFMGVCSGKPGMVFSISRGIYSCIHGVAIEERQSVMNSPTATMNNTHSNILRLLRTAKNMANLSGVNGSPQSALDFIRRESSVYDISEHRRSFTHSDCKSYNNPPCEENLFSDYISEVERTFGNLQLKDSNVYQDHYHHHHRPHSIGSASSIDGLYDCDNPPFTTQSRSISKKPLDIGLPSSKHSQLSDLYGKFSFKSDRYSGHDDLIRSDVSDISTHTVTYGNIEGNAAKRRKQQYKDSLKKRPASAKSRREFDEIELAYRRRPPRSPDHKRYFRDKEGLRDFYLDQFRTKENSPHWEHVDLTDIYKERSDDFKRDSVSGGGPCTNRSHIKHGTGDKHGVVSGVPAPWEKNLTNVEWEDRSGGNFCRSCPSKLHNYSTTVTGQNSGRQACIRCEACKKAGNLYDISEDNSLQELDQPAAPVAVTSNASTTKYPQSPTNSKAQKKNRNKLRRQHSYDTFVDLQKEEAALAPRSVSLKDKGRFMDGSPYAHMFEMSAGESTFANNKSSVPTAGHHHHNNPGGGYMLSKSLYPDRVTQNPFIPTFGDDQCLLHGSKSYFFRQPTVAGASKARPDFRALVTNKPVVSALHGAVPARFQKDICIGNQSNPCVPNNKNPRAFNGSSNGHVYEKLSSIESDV
Format: cell-based
With `CC1(O)CN(C(=O)Cn2ccc3scc(-c4ccc(F)c(Cl)c4)c3c2=O)C1` [Example 58, 3-(3-chloro-4-fluorophenyl)-5-(2-(3-hydroxy-3-methylazetidin-1-yl)-2-oxoethyl)thieno[3,2-c]pyridin-4(5H)-one] the “Response Recovered (%)” value was 10%.
With `CC1CN(C(=O)Cn2ccc3scc(-c4ccc(Cl)c(Cl)c4)c3c2=O)C1` [Example 59, 3-(3,4-dichlorophenyl)-5-(2-(3-methylazetidin-1-yl)-2-oxoethyl)thieno[3,2-c]pyridin-4(5H)-one] the “Response Recovered (%)” value was 110%.
In the case of `CC1CN(C(=O)Cn2ccc3scc(-c4ccc(F)c(C(F)(F)F)c4)c3c2=O)C1` [Example 60, 3-(4-fluoro-3-(trifluoromethyl)phen-yl)-5-(2-(3-methylazetidin-1-yl)-2-oxoethyl)thieno[3,2-c]pyridin-4(5H)-one], the “Response Recovered (%)” value is reported as 76%.
For `CC1(O)CN(C(=O)Cn2ccc3scc(-c4ccc(Cl)c(Cl)c4)c3c2=O)C1` [Example 61, 3-(3,4-dichlorophenyl)-5-(2-(3-hydroxy-3-methylazetidin-1-yl)-2-oxoethyl)thieno[3,2-c]pyridin-4(5H)-one], the “Response Recovered (%)” value was 16%.
`COC1(C)CN(C(=O)Cn2ccc3scc(-c4ccc(F)c(Cl)c4)c3c2=O)C1` [Example 62, 3-(3-chloro-4-fluorophenyl)-5-(2-(3-methoxy-3-methylazetidin-1-yl)-2-oxoethyl)thieno[3,2-c]pyridin-4(5H)-one] was tested, and the “Response Recovered (%)” value was 11%.
`COC1(C)CN(C(=O)Cn2ccc3scc(-c4ccc(Cl)c(Cl)c4)c3c2=O)C1` [Example 63, 3-(3,4-dichlorophenyl)-5-(2-(3-methoxy-3-methylazetidin-1-yl)-2-oxoethyl)thieno[3,2-c]pyridin-4(5H)-one] was tested, and the “Response Recovered (%)” value was 16%.
For `COC1(C)CN(C(=O)Cn2ccc3scc(-c4ccc(F)c(C(F)(F)F)c4)c3c2=O)C1` [Example 64, 3-(4-fluoro-3-(trifluoromethyl)phen-yl)-5-(2-(3-methoxy-3-methylazetidin-1-yl)-2-oxoethyl)thieno[3,2-c]pyridin-4(5H)-one], the “Response Recovered (%)” value was 22%.
For `O=C(Cn1ccc2scc(-c3ccc(F)c(Cl)c3)c2c1=O)N1CC2C(C1)C2(F)F` (centres unmarked) [Example 65, 3-(3-chloro-4-fluorophenyl)-5-(2-(6,6-difluoro-3-azabicyclo[3.1.0]hex-an-3-yl)-2-oxoethyl)thieno[3,2-c]pyridin-4(5H)-one], the “Response Recovered (%)” value was 13%.
For `O=C(Cn1ccc2scc(-c3ccc(Cl)c(Cl)c3)c2c1=O)N1CC2C(C1)C2(F)F` (centres unmarked) [Example 66, 3-(3,4-dichlorophenyl)-5-(2-(6,6-difluoro-3-azabicyclo[3.1.0]hex-an-3-yl)-2-oxoethyl)thieno[3,2-c]pyridin-4(5H)-one], the “Response Recovered (%)” value was 26%.
With `O=C(Cn1ccc2scc(-c3ccc(F)c(Cl)c3)c2c1=O)N1CC2(COC2)C1` [Example 67, 3-(3-chloro-4-fluroophenyl)-5-(2-oxo-2-(2-oxa-6-azaspiro[3.3]heptan-6-yl)ethyl)thieno[3,2-c]pyridin-4(5H)-one] the “Response Recovered (%)” value was 4.4%.
`O=C(Cn1ccc2scc(-c3ccc(Cl)c(Cl)c3)c2c1=O)N1CC2(COC2)C1` [Example 68, 3-(3,4-dichlorophenyl)-5-(2-oxo-2-(2-oxa-6-azaspiro[3.3]heptan-6-yl)ethyl)thieno[3,2-c]pyridin-4(5H)-one] was tested, and the “Response Recovered (%)” value was 13%.
In the case of `O=C(Cn1ccc2scc(-c3ccc(F)c(C(F)(F)F)c3)c2c1=O)N1CC2(COC2)C1` [Example 69, 3-(4-fluoro-3-(trifluoromethyl)phen-yl)-5-(2-oxo-2-(2-oxa-6-azaspiro[3.3]heptan-6-yl)ethyl)thieno[3,2-c]pyridin-4(5H)-one], the “Response Recovered (%)” value is reported as 16%.
With `O=C(Cn1ccc2scc(-c3cnc(Cl)c(Cl)c3)c2c1=O)N1CC(F)(C2CC2)C1` [Example 70, 5-(2-(3-cyclopropyl-3-fluoroazetidin-1-yl)-2-oxoethyl)-3-(5,6-dichloropyridin-3-yl)thieno[3,2-c]pyridin-4(5H)-one] the “Response Recovered (%)” value was 64%.
For `O=C(Cn1ccc2scc(-c3ccc(F)c(Cl)c3)c2c1=O)N1CC2(CC2)C1` [Example 71, 3-(3-chloro-4-fluorophenyl)-5-(2-oxo-2-(5-azaspiro[2.3]hexan-5-yl)ethyl)thieno[3,2-c]pyridin-4(5H)-one], the “Response Recovered (%)” value was 46%.
`O=C(Cn1ccc2scc(-c3ccc(F)c(C(F)(F)F)c3)c2c1=O)N1CC2C(C1)C2(F)F` (centres unmarked) [Example 72, 5-(2-(6,6-difluoro-3-azabicyclo[3.1.0]hex-an-3-yl)-2-oxoethyl)-3-(4-fluoro-3-(trifluoromethyl)phen-yl)thieno[3,2-c]pyridin-4(5H)-one] was tested, and the “Response Recovered (%)” value was 37%.
`CC1(NC(=O)OC(C)(C)C)CN(C(=O)Cn2ccc3scc(-c4ccc(Cl)c(Cl)c4)c3c2=O)C1` [Example 73, tert-butyl (1-(2-(3-(3,4-dichlorophenyl)-4-oxothieno[3,2-c]pyridin-5(4H)-yl)acetyl)-3-methylazetidin-3-yl)carbamate] was tested, and the “Response Recovered (%)” value was 9.8%.
With `CC1(NC(=O)OC(C)(C)C)CN(C(=O)Cn2ccc3scc(-c4ccc(F)c(Cl)c4)c3c2=O)C1` [Example 74, tert-butyl (1-(2-(3-(3-chloro-4-fluorophenyl)-4-oxothieno[3,2-c]pyridin-5(4H)-yl)acetyl)-3-methylazetidin-3-yl)carbamate] the “Response Recovered (%)” value was 4.7%.
With `CCC1(F)CN(C(=O)Cn2ccc3scc(-c4cnc(Cl)c(Cl)c4)c3c2=O)C1` [Example 75, 3-(5,6-dichloropyridin-3-yl)-5-(2-(3-ethyl-3-fluoroazetidin-1-yl)-2-oxoethyl)thieno[3,2-c]pyridin-4(5H)-one] the “Response Recovered (%)” value was 78%.
For `CC1(F)CN(C(=O)Cn2ccc3scc(-c4cnc(Cl)c(Cl)c4)c3c2=O)C1` [Example 76, 3-(5,6-dichloropyridin-3-yl)-5-(2-(3-fluoro-3-methylazetidin-1-yl)-2-oxoethyl)thieno[3,2-c]pyridin-4(5H)-one], the “Response Recovered (%)” value was 77%.
In the case of `CC1(NC(=O)OC(C)(C)C)CN(C(=O)Cn2ccc3scc(-c4ccc(F)c(C(F)(F)F)c4)c3c2=O)C1` [Example 77, tert-butyl (1-(2-(3-(4-fluoro-3-(trifluoromethyl)phen-yl)-4-oxothieno[3,2-c]pyridin-5(4H)-yl)acetyl)-3-methylazetidin-3-yl)carbamate], the “Response Recovered (%)” value is reported as −6.4%.
`O=C(Cn1ccc2scc(-c3ccc(Cl)c(Cl)c3)c2c1=O)N1CC2(CC2)C1` [Example 78, 3-(3,4-dichlorophenyl)-5-(2-oxo-2-(5-azaspiro[2.3]hexan-5-yl)ethyl)thieno[3,2-c]pyridin-4(5H)-one] was tested, and the “Response Recovered (%)” value was 53%.
For `CC(C)(C)OC(=O)N1CCC12CN(C(=O)Cn1ccc3scc(-c4ccc(F)c(Cl)c4)c3c1=O)C2` [Example 79, tert-butyl 6-(2-(3-(3-chloro-4-fluorophenyl)-4-oxothieno[3,2-c]pyridin-5(4H)-yl)acetyl)-1,6-diazaspiro[3.3]heptane-1-carboxylate], the “Response Recovered (%)” value was 18%.
In the case of `O=C(Cn1ccc2scc(-c3ccc(F)c(C(F)(F)F)c3)c2c1=O)N1CC2(CC2)C1` [Example 80, 3-(4-fluoro-3-(trifluoromethyl)phen-yl)-5-(2-oxo-2-(5-azaspiro[2.3]hexan-5-yl)ethyl)thieno[3,2-c]pyridin-4(5H)-one], the “Response Recovered (%)” value is reported as 64%.
